This data set is described as follows: MRI造影効果: MRI contrast effect of solutions (T1- and T2-weighted, 7.0T). The format is physicochemical. To be noted: aqueous solution, 0, 1.3, 2.5, 5mM, T1- and T2-weighted images, Fig. 6(C).

The structures appear in SMILES notation.

Take `Cc1ccc(Nc2nccc(N(C)c3ccc4c(C)n(C)nc4c3)n2)cc1S(N)(=O)=O` [比較例1, 2-メチル-5-[[4-[メチル(2,3-ジメチル-2H-インダゾール-6-イル)アミノ]ピリミジン-2-イル]アミノ]ベンゼンスルホンアミド]: the MRI image appearance entry is “いずれの濃度においても白色の高シグナル”.

Values taken from patent JP2017128553A, “抗癌剤、抗癌剤の制御方法” (IHI Corp, priority 2016, dated 2017).
